What all share (assay type): biochemical
The target of assay [1] is T1, CDK1 (Homo sapiens, UniProt P06493).
T1 construct: recombinant CDK1/Cyclin B1 (SignalChem); with Cyclin B1
As to the kind of experiment: in vitro kinase assay, […]-ATP ([…] ATP), H1 histone substrate, SDS-PAGE autoradiography.

Assay [2] addresses T2, CDK2 (Homo sapiens, UniProt P24941).
T2 construct: recombinant CDK2/Cyclin A2 (SignalChem); with Cyclin A2
The description is as above.

Assay [3] has as its target T3, CDK4 (Homo sapiens, UniProt P11802).
T3 construct: recombinant CDK4/Cyclin D1 (SignalChem); with Cyclin D1
As to the kind of experiment: in vitro kinase assay, […]-ATP ([…] ATP), retinoblastoma (C-term) substrate, SDS-PAGE autoradiography.

Among the data in PMC6468648, “The Flavonoid Metabolite 2,4,6-Trihydroxybenzoic Acid Is a CDK Inhibitor and an Anti-Proliferative Agent: A Potential Role in Cancer Prevention” (Cancers, 2019) are IC50 values, retold here.

In general, IC50 refers to the concentration needed to halve the response being measured. A higher IC50 goes with lower potency.

T1 sequence (P06493 whole entry): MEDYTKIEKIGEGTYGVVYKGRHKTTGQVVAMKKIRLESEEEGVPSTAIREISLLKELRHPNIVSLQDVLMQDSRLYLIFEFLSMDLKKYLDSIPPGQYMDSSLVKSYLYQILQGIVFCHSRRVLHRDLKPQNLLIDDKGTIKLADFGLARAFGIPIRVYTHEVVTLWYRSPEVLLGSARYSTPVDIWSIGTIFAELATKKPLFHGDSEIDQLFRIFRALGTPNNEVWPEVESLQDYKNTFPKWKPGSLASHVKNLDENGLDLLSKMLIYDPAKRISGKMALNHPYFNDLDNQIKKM
T1 sequence (P14635 whole entry partner): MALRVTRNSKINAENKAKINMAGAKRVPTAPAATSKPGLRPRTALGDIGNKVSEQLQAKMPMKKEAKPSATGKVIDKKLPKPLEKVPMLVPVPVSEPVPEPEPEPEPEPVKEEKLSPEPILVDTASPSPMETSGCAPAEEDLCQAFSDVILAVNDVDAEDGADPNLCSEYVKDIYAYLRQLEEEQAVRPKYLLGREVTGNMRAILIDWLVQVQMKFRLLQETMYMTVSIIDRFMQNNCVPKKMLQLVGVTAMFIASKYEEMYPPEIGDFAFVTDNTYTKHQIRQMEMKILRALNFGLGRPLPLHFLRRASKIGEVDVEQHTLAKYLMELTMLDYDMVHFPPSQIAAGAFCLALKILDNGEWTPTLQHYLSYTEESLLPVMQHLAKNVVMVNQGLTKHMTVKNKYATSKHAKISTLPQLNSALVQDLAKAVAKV
T3 sequence (P11802 2-303): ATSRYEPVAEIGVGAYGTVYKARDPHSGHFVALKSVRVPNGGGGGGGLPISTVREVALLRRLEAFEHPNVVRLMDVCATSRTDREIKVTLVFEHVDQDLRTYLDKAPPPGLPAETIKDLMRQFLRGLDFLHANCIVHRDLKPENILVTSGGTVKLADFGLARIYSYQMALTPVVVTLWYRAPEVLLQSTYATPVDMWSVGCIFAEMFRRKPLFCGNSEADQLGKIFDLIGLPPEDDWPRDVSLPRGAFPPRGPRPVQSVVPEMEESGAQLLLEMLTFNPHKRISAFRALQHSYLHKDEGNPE
T3 sequence (P24385 whole entry partner): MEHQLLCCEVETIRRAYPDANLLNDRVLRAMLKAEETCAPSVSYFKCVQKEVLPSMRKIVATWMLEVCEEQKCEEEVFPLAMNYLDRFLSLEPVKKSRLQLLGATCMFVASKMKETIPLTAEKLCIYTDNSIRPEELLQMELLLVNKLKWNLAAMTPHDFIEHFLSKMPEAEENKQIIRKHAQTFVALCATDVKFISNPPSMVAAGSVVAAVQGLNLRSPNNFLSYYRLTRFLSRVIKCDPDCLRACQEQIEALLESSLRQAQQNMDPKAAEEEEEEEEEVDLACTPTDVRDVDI

As for `O=C(O)c1c(O)cc(O)cc1O` [2,4,6-THBA, 2,4,6-trihydroxybenzoic acid], the values for the concentration for half-maximal inhibition (IC50) in assay [1], in assay [2] and in assay [3] were 580 ± 57 µM, 262 ± 29 µM and 403 ± 63 µM, respectively.
